Read-outs that look alike come from different tables or passages of the source.
Biological target: T1, human recombinant COX2 (hCOX2) (UniProt P35354)
T1 sequence (P35354 1-604): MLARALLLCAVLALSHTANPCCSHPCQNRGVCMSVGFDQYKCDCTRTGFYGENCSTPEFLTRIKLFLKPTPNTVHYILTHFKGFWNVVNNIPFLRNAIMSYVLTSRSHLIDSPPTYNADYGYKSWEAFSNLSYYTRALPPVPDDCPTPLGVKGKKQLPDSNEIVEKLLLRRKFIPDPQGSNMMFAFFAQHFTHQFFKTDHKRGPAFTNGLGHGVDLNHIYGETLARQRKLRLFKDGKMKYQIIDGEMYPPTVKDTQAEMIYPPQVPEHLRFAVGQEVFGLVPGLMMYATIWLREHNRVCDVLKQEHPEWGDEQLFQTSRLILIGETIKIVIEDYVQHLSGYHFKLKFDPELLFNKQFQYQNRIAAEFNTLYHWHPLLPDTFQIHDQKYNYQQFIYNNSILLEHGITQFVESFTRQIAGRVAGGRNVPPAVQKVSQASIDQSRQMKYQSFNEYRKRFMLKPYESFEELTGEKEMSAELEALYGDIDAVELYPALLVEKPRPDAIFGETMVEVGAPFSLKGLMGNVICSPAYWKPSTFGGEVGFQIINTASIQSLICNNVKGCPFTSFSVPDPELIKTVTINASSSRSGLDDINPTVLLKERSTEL
Assay: LCMS-based COX2 enzymatic inhibition assay (PGE2 quantification)
Type: biochemical
Set-up: COX2 2 minutes pge2/pge2d4 area ratio Avg; other: 2 minutes; readout pge2/pge2d4 area ratio; average; COX2 2 minutes pge2/pge2d4 area ratio Avg; LLE; average LLE; COX2 2 minutes pge2 area (counts) Avg; readout pge2 area (counts); other: 2 min; "ovine COX2 (oCOX2), human recombinant COX2 (hCOX2)"
Conditions: for COX2 2 minutes pge2/pge2d4 area ratio Avg. LLE / COX2 2 minutes pge2 area (counts) Avg. LLE / COX2 10 minutes pge2 area (counts) Avg. LLE: average LLE; for IC50: average
Experimental: We have adapted a previously reported cyclooxygenase enzymatic assay utilizing LCMS quantification of PGE2 as the product of COX-1 and COX2 catalyzed conversion of arachidonic acid to evaluate the binding properties of newly synthesized ligands [Cao, 2011]. These optimized and miniaturized (384-well plates) LCMS-based COX-1 and COX2 enzymatic assays enabled us to quickly evaluate newly synthesized ligands for COX2 binding affinity and selectivity vs COX-1. Using a shorter ligand-enzyme incubation time in the LCMS assay (2 minutes vs 10 minutes) also permitted us to prioritize ligands with faster binding kinetics. Considering the relatively slow on-rate kinetics of known coxibs, due to their 3-step binding mechanism [Marnett, 2009], we believe that optimizing this critical parameter will be key to the successful development of a COX2 PET tracer. Using these enzymatic assays, we have evaluated>200 newly synthesized ligands against COX2 and >20 ligands against COX-1. Another critical property necessary for a good PET radiotracer is to have low non-specific binding (NSB) to increase the free fraction and maximize the signal to noise ratio. This property can be evaluated using in-vitro protein binding assays, and we have now evaluated>50 newly synthesized ligands in mouse, rat and human plasma protein binding (PPB) assays as well as >15 ligands in a mouse brain protein binding (BPB) assay.
Ovine COX-1 (oCOX-1), ovine COX2 (oCOX2), human recombinant COX2 (hCOX2), arachidonic acid, PGE2, d4-PGD2, and […] (labeled with deuterium atoms at positions 3 and 4) were purchased from Cayman Chemicals (Ann Arbor, Mich.). The cofactors (−)epinephrine and hematin, and the COX inhibitors indomethacin, resveratrol and diclofenac were purchased from Sigma-Aldrich (St. Louis, Mo.). Celecoxib was purchased from 3B PharmaChem International (Wuhan, China). All organic solvents were HPLC grade or better and were purchased from Thermo Fisher (Hanover Park, Ill.). Formic acid was purchased from EMD Chemicals (San Diego, Calif.). Purified water was prepared by using a Millipore Milli-Q purification system (Millipore, Billerica, Mass.). All other chemicals and solvents were ACS reagent grade, unless stated otherwise.
In an Eppendorf tube, 146 μL of 100 mM Tris.HCl (pH 8.0) buffer, 2 μL of 100 μM hematin (co-factor) and 10 μL of 40 mM L-epinephrine (co-factor) were mixed at room temperature. Next, 20 μL of Tris.HCl (pH 8.0) buffer containing 0.2 μg COX2 or 0.1 μg COX-1 (approximately 1 unit of enzyme; 1 unit COX utilizes 1 nmol 02/mg/min at 37° C.) was added, and the solution was incubated at room temperature for 2 min. A 2 μL aliquot of the COX inhibitor in DMSO was added to the enzyme solution and preincubated at 37° C. for 10 min. Negative controls were identical except that 2 μL aliquots of DMSO without inhibitor were used instead.
Each COX reaction was initiated by adding 20 μL of arachidonic acid in Tris.HCl (pH 8.0) buffer to give a final concentration of 5 μM; and the reaction was terminated after 2 min by adding 20 μL of 2.0 M HCl. The surrogate standards d4-PGE2 and d4-PGD2 (10 μL aliquot of 50 ng/mL solution in methanol) were added to correct for errors or degradation during sample handling and for variation in injection volume or instrument response during LC-MS-MS. After 30 min, PGE2, PGD2 and their surrogate standards were extracted from each incubation mixture using 800 μL hexane/ethyl acetate (50:50, v/v). The organic phase was removed, evaporated to dryness, and reconstituted in 100 μL methanol/water (50:50, v/v) for analysis using LC-MS-MS.
The concentration of PGE2 in each sample was measured using LC-MS-MS, and the percent of COX inhibition by each test solution was determined by comparing the amount of PGE2 produced in the experiment with that produced in the negative control incubation. The formation of PGD2 was measured for quality control purposes, since the levels of PGD2 should be proportional to those of PGE2. […]

[1] = 2 minutes, readout pge2/pge2d4 area ratio
[2] = 2 minutes, readout pge2/pge2d4 area ratio, read-out: COX2 2 minutes pge2/pge2d4 area ratio Avg. IC50
[3] = 2 minutes, readout pge2 area (counts)
[4] = 2 minutes, readout pge2 area (counts), read-out: COX2 2 minutes pge2 area (counts) Avg. IC50
[5] = read-out: COX2 2 minutes pge2/pge2d4 area ratio Avg. IC50 (microM), 2 minutes, readout pge2/pge2d4 area ratio
[6] = 10 minutes, readout pge2 area (counts)

Compound | COX2 2 minutes pge2/pge2d4 area ratio Avg. LLE [1] | IC50 [2] [µM] | COX2 2 minutes pge2 area (counts) Avg. LLE [3] | IC50 [4] [µM] | IC50 [5] [µM] | COX2 10 minutes pge2 area (counts) Avg. LLE [6] | IC50 (10 minutes, readout pge2 area (counts), read-out: COX2 10 minutes pge2 area (counts) Avg. IC50) [µM]
COc1ncc(NCc2ccon2)nc1-c1ccc(S(C)(=O)=O)cc1 [Compound 152] | 6.031 | 0.297 | 6.197 | 0.174 | – | – | –
CS(=O)(=O)c1ccc(-c2cc(OCc3cccs3)ccn2)cc1 [Compound 315] | – | – | – | – | 5.2 | – | –
CN1CCC(Nc2cncc(-c3ccc(S(C)(=O)=O)cc3)n2)CC1 [Compound 298] | – | – | – | – | 5.2 | – | –
COc1cc(S(C)(=O)=O)ccc1-c1cncc(NCc2cccs2)n1 [Compound 179] | 4.286 | 0.546 | 4.322 | 0.387 | – | – | –
CS(=O)(=O)c1ccc(-c2nc(OCc3cccs3)cc3ncccc23)cc1 [Compound 140] | 2.8258 | 0.212 | 2.75 | 0.311 | – | – | –
CS(=O)(=O)c1ccc(-c2cncc(OC[C@@H]3CCCO3)n2)cc1 [Compound 275] | 4.054 | – | 4.054 | – | 5.2 | – | –
CS(=O)(=O)c1ccc(-c2cccc(NC(=O)c3cccs3)n2)cc1 [Compound 302] | – | – | – | – | 5.2 | – | –
COc1ccc(-c2ccc(S(C)(=O)=O)cc2)nc1NCc1cccs1 [Compound 160] | 3.162 | 0.385 | 3.174 | 0.361 | – | – | –
CS(=O)(=O)c1ccc(-c2cncc(NCc3cccs3)c2)cc1 [Compound 79] | 4.192 | 0.0506 | 4.109 | 0.0596 | – | – | –
CS(=O)(=O)c1ccc(-c2cncc(SCc3cocn3)n2)cc1 [Compound 258] | 3.44 | 4.1 | 3.462 | 3.9 | – | – | –
CS(=O)(=O)c1ccc(-c2cncc(NCc3cncs3)n2)cc1 [Compound 201] | 4.51 | 1.01 | 4.612 | 0.832 | – | – | –
CC(=O)c1ncc(-c2ccc(S(C)(=O)=O)cc2)nc1NCc1cccs1 [Compound 207] | 3.8683 | 1.32 | 3.915 | 1.06 | – | – | –
CC(C)(C)OC(=O)N(c1ccoc1)c1cccc(-c2ccc(S(C)(=O)=O)cc2)n1 [Compound 296] | – | – | – | – | 5.2 | – | –
CS(=O)(=O)c1ccc(-c2cncc(SCc3ncco3)n2)cc1 [Compound 217] | 3.66 | 1.54 | 3.522 | 2.24 | – | – | –
CS(=O)(=O)c1ccc(-c2cncc(NCc3nccs3)n2)cc1 [Compound 203] | 4.216 | 1.15 | 4.434 | 0.804 | – | – | –
CC(C)COc1cncc(-c2ccc(S(C)(=O)=O)cc2)n1 [Compound 293] | 3.394 | – | 3.394 | – | 5.2 | 3.394 | –
CS(=O)(=O)c1ccc(-c2cncc(N3CCC4(CCCC4)CC3)n2)cc1 [Compound 319] | – | – | – | – | 5.2 | – | –
CS(=O)(=O)c1ccc(-c2cncc(N3Cc4ccccc4C3)n2)cc1 [Compound 313] | – | – | – | – | 5.2 | – | –
CS(=O)(=O)c1ccc(-c2cncc(OCc3cncs3)n2)cc1 [Compound 138] | 4.957 | 0.202 | 4.957 | 0.198 | – | – | –
NS(=O)(=O)c1ccc(-c2cncc(NCc3cccs3)n2)cc1 [Compound 106] | 5.5926 | 0.0916 | 5.699 | 0.0665 | – | – | –
CS(=O)(=O)c1ccc(-c2ccc3ncn(Cc4cccs4)c3n2)cc1 [Compound 155] | 2.321 | 0.32 | 2.324 | 0.317 | – | – | –
COc1ncc(NCc2cccs2)cc1-c1ccc(S(C)(=O)=O)cc1 [Compound 196] | 2.588 | 0.887 | 2.528 | 1.02 | – | – | –
CS(=O)(=O)c1ccc(-c2cnnc(OCc3cccs3)c2)cc1 [Compound 321] | – | – | – | – | 5.2 | – | –
COc1ncc(OCc2ccco2)nc1-c1ccc(S(C)(=O)=O)cc1 [Compound 81] | 5.231 | 0.0559 | 5.428 | 0.041 | – | – | –
CS(=O)(=O)c1ccc(-c2cnc(F)c(NCc3cccs3)n2)cc1 [Compound 97] | 4.517 | 0.0757 | 4.626 | 0.0581 | – | – | –
COc1ccc(NCc2ccco2)nc1-c1ccc(S(C)(=O)=O)cc1 [Compound 149] | 4.057 | 0.272 | 4.033 | 0.285 | – | – | –
CS(=O)(=O)c1ccc(-c2cnc3ncn(Cc4cccs4)c3n2)cc1 [Compound 210] | 2.8514 | 1.41 | 2.964 | 1.17 | – | 3.939 | 0.112
CS(=O)(=O)c1ccc(-c2cc(NCc3ccco3)ccn2)cc1 [Compound 235] | – | 2.5 | – | 2.15 | – | – | –
Cc1cccc(COc2cncc(-c3ccc(S(C)(=O)=O)cc3)n2)c1 [Compound 285] | 2.514 | – | 2.514 | – | 5.2 | – | –

Source: US20220348590A1, “CYCLOOXYGENASE-2 INHIBITORS AND USES THEREOF” (The Board Institute, Inc., priority 2019, published 2022)
